According to patent US20260347338A1, “PYRIMIDINE/PYRIDINE DERIVATIVES OR SALTS THEREOF AND PHARMACEUTICAL COMPOSITIONS COMPRISING THE SAME” (YUHAN CORPORATION, priority 2023, published 2026):

Molecular target: T1, human recombinant HPK1 (Homo sapiens, UniProt Q92918)
T1 construct: purchased BPS Bioscience
Experiment: Inhibitory activity against human recombinant HPK1 (TR-FRET)
Assay type: biochemical
Settings: ULight-p70S6K peptide, ATP at Km, room temperature, 1 hour, 0.32 to 1000 nM compound
Procedure: Test Example: Evaluation of Inhibitory Activity Against Human Recombinant HPK1
The inhibitory activity against human recombinant HPK1 was evaluated using the Time-Resolved Fluorescence Resonance Energy Transfer (TR-FRET) technology of Perkin-Elmer. The test compound was prepared as a 20 mM stock solution with dimethyl sulfoxide (DMSO), serially diluted in a buffer solution, and used at final compound concentrations of 0.32 to 1000 nM. The evaluation of inhibitory activity was carried out at room temperature, using recombinant human HPK1 (BPS Bioscience). Briefly, recombinant human HPK1, serially diluted each test compound, ULight-p70S6K peptide substrate (PerkinElmer), and ATP at each concentration (Km and final concentration) were added to a kinase buffer solution (50 mM HEPES pH 7.4, 10 mM MgCl2, 1 mM EGTA, 3 mM MnCl2, 2 mM DTT, and 0.01% Tween-20). The resulting mixture was added to each well of a 384-well plate (Optiplate™ 384, white, PerkinElmer). The enzyme reaction was carried out at room temperature for 1 hour. After the reaction was suspended by adding 4 μL of a stop solution (10 mM EDTA) thereto, the mixture was stirred for 1 minute and then a detection solution containing Europium-labeled anti-phosphopeptide antibody (final concentration: 2 nM, PerkinElmer) was added thereto. The signals of TR-FRET at excitation wavelength (320 nm) and emission wavelength (665 nm) were detected using a microplate reader (Envision Multilabel Reader, Perkin-Elmer). Inhibition by the test compound was measured as % inhibition in the signals, compared to the control group treated with DMSO only. The IC50 value of each compound was calculated using the GraphPad Prism program (GraphPad Software, Inc., San Diego, CA, USA). The IC50 values of test compounds for inhibitory activity against HPK1 were classified as follows: • A: IC50≤10 nM • B: 10 nM<IC50≤50 nM • C: 50 nM<IC50≤100 nM • D: IC50>100 nM

T1 sequence (Q92918 whole entry): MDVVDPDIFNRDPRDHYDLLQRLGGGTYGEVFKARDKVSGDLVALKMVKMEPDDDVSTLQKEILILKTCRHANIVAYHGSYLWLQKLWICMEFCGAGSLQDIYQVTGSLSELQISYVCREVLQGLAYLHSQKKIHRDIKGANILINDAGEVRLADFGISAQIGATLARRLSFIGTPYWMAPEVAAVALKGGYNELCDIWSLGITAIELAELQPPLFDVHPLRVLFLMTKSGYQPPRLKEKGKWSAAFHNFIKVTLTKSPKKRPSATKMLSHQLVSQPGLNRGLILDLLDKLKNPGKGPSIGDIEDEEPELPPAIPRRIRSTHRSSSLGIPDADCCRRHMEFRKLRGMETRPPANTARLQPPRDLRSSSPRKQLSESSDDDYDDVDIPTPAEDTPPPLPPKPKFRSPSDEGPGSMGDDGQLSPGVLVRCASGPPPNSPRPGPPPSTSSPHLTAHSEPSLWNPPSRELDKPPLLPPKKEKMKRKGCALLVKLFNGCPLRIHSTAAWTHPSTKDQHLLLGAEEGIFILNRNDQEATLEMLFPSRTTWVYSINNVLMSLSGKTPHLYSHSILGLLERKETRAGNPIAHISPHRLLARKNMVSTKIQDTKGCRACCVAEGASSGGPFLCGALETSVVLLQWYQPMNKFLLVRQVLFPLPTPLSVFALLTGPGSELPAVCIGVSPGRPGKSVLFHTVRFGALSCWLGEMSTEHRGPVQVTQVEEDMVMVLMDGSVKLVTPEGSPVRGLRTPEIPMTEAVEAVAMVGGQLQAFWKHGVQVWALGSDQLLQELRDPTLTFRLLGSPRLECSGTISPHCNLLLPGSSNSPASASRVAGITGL

| Compound | IC50 [nM] |
| --- | --- |
| 2-(2-fluoro-6-methoxyphenyl)-6-((4-((S)-3-hydroxypiperidin-1-yl)-5-(1-(1-methylpiperidin-4-yl)-1H-pyrazol-4-yl)pyrimidin-2-yl)amino)nicotinonitrile [Example 63] | 50 to 100 |
| Cc1cncc(-c2nccc(Nc3cc(N4CCC[C@H](O)C4)c(C(=O)C4CC4)cn3)n2)c1 [Example 1, (S)-cyclopropyl(4-(3-hydroxypiperidin-1-yl)-6-((2-(5-methylpyridin-3-yl)pyrimidin-4-yl)amino)pyridin-3-yl)methanone] | 10 to 50 |
| Nc1cncc(-c2nccc(Nc3cc(N4CCC[C@H](O)C4)c(C(=O)C4CC4)cn3)n2)c1 [Example 2, (S)-(6-((2-(5-aminopyridin-3-yl)pyrimidin-4-yl)amino)-4-(3-hydroxypiperidin-1-yl)pyridin-3-yl)(cyclopropyl)methanone] | 10 to 50 |
| COc1cncc(-c2nccc(Nc3cc(N4CCC[C@H](O)C4)c(C(=O)C4CC4)cn3)n2)c1 [Example 3, (S)-cyclopropyl(4-(3-hydroxypiperidin-1-yl)-6-((2-(5-methoxypyridin-3-yl)pyrimidin-4-yl)amino)pyridin-3-yl)methanone] | 50 to 100 |
| O=C(c1cnc(Nc2ccnc(-c3cccc(O)c3)n2)cc1N1CCC[C@H](O)C1)C1CC1 [Example 4, (S)-cyclopropyl(6-((2-(3-hydroxyphenyl)pyrimidin-4-yl)amino)-4-(3-hydroxypiperidin-1-yl)pyridin-3-yl)methanone] | 50 to 100 |
| COc1cccc(F)c1-c1nccc(Nc2cc(N3CCC[C@H](O)C3)c(C(=O)C3CC3)cn2)n1 [Example 5, (S)-cyclopropyl(6-((2-(2-fluoro-6-methoxyphenyl)pyrimidin-4-yl)amino)-4-(3-hydroxypiperidin-1-yl)pyridin-3-yl)methanone] | 10 to 50 |
| COc1cccc(F)c1-c1nccc(Nc2cc(N3CC(O)C3)c(C(=O)C3CC3)cn2)n1 [Example 6, cyclopropyl(6-((2-(2-fluoro-6-methoxyphenyl)pyrimidin-4-yl)amino)-4-(3-hydroxyazetidin-1-yl)pyridin-3-yl)methanone] | 10 to 50 |
| COc1cccc(F)c1-c1nccc(Nc2cc(N3CCC[C@H](O)C3)c(C#Cc3cnn(C(F)(F)F)c3)cn2)n1 [Example 8, (S)-1-(2-((2-(2-fluoro-6-methoxyphenyl)pyrimidin-4-yl)amino)-5-((1-(trifluoromethyl)-1H-pyrazol-4-yl)ethynyl)pyridin-4-yl)piperidin-3-ol] | 10 to 50 |
| COc1cccc(F)c1-c1nccc(Nc2cc(N3CCC[C@@H](O)C3)c(C#Cc3cnn(C(F)(F)F)c3)cn2)n1 [Example 9, (R)-1-(2-((2-(2-fluoro-6-methoxyphenyl)pyrimidin-4-yl)amino)-5-((1-(trifluoromethyl)-1H-pyrazol-4-yl)ethynyl)pyridin-4-yl)piperidin-3-ol] | 10 to 50 |
| COc1cccc(F)c1-c1nccc(Nc2cc(N3CC(O)C3)c(C#CC3CCOCC3)cn2)n1 [Example 10, 1-(2-((2-(2-fluoro-6-methoxyphenyl)pyrimidin-4-yl)amino)-5-((tetrahydro-2H-pyran-4-yl)ethynyl)pyridin-4-yl)azetidin-3-ol] | 10 to 50 |
| COc1cccc(F)c1-c1nccc(Nc2cc(N3CCC[C@H](O)C3)c(-c3ccc(N4CCOCC4)nc3)cn2)n1 [Example 20, (S)-1-(6-((2-(2-fluoro-6-methoxyphenyl)pyrimidin-4-yl)amino)-6′-morpholino-[3,3′-bipyridin]-4-yl)piperidin-3-ol] | ≤ 10 |
| OCc1csc(-c2nccc(Nc3cc(N4CCC[C@H](O)C4)c(-c4cnn(C5CCOCC5)c4)cn3)n2)c1 [Example 21, (S)-1-(2-((2-(4-(hydroxymethyl)thiophen-2-yl)pyrimidin-4-yl)amino)-5-(1-(tetrahydro-2H-pyran-4-yl)-1H-pyrazol-4-yl)pyridin-4-yl)piperidin-3-ol] | 10 to 50 |
| O[C@H]1CCCN(c2cc(Nc3ccnc(-c4c(F)cccc4F)n3)ncc2-c2cnn(C3CCOCC3)c2)C1 [Example 22, (S)-1-(2-((2-(2,6-difluorophenyl)pyrimidin-4-yl)amino)-5-(1-(tetrahydro-2H-pyran-4-yl)-1H-pyrazol-4-yl)pyridin-4-yl)piperidin-3-ol] | ≤ 10 |
| COc1c(F)ccc(F)c1-c1nccc(Nc2cc(N3CCC[C@H](O)C3)c(-c3cnn(C4CCOCC4)c3)cn2)n1 [Example 23, (S)-1-(2-((2-(3,6-difluoro-2-methoxyphenyl)pyrimidin-4-yl)amino)-5-(1-(tetrahydro-2H-pyran-4-yl)-1H-pyrazol-4-yl)pyridin-4-yl)piperidin-3-ol] | 10 to 50 |
| COc1ccc(F)c(F)c1-c1nccc(Nc2cc(N3CCC[C@H](O)C3)c(-c3cnn(C4CCOCC4)c3)cn2)n1 [Example 24, (S)-1-(2-((2-(2,3-difluoro-6-methoxyphenyl)pyrimidin-4-yl)amino)-5-(1-(tetrahydro-2H-pyran-4-yl)-1H-pyrazol-4-yl)pyridin-4-yl)piperidin-3-ol] | ≤ 10 |

Other lines, results leading:

| IC50 [nM] | Compound |
| --- | --- |
| ≤ 10 | 2-(2-fluoro-6-methoxyphenyl)-N-(4-(2-methyl-2,8-diazaspiro[4.5]decan-8-yl)-5-(1-(2,2,2-trifluoroethyl)-1H-pyrazol-4-yl)pyridin-2-yl)pyrimidin-4-amine [Example 136] |
| ≤ 10 | 6-((6-(2-fluoro-6-methoxyphenyl)-5-nitropyridin-2-yl)amino)-N-((1R,3S)-3-hydroxycyclopentyl)-4-((S)-3-hydroxypiperidin-1-yl)nicotinamide [Example 195] |
| ≤ 10 | COc1cccc(F)c1-c1nccc(Nc2cc(N3CCC[C@H](O)C3)c(-c3cnn(C4CCOCC4)c3)cn2)n1 [Example 7, (S)-1-(2-((2-(2-fluoro-6-methoxyphenyl)pyrimidin-4-yl)amino)-5-(1-(tetrahydro-2H-pyran-4-yl)-1H-pyrazol-4-yl)pyridin-4-yl)piperidin-3-ol] |
| ≤ 10 | COc1cccc(F)c1-c1nccc(Nc2cc(N3CCC[C@H](O)C3)c(C#CC3CCOCC3)cn2)n1 [Example 11, (S)-1-(2-((2-(2-fluoro-6-methoxyphenyl)pyrimidin-4-yl)amino)-5-((tetrahydro-2H-pyran-4-yl)ethynyl)pyridin-4-yl)piperidin-3-ol] |
| ≤ 10 | COc1cccc(F)c1-c1nccc(Nc2cc(N3CCC[C@H](O)C3)c(-c3cnn(C)c3)cn2)n1 [Example 12, (S)-1-(2-((2-(2-fluoro-6-methoxyphenyl)pyrimidin-4-yl)amino)-5-(1-methyl-1H-pyrazol-4-yl)pyridin-4-yl)piperidin-3-ol] |
| ≤ 10 | COc1cccc(F)c1-c1nccc(Nc2cc(N3CCC[C@H](O)C3)c(-c3cnn(C(C)C)c3)cn2)n1 [Example 13, (S)-1-(2-((2-(2-fluoro-6-methoxyphenyl)pyrimidin-4-yl)amino)-5-(1-isopropyl-1H-pyrazol-4-yl)pyridin-4-yl)piperidin-3-ol] |
| ≤ 10 | COc1cccc(F)c1-c1nccc(Nc2cc(N3CCC[C@H](O)C3)c(-c3cnn(C4CCOC4)c3)cn2)n1 (stereo partly drawn) [Example 14, (3S)-1-(2-((2-(2-fluoro-6-methoxyphenyl)pyrimidin-4-yl)amino)-5-(1-(tetrahydrofuran-3-yl)-1H-pyrazol-4-yl)pyridin-4-yl)piperidin-3-ol] |
| ≤ 10 | COc1cccc(F)c1-c1nccc(Nc2cc(N3CCC[C@H](O)C3)c(-c3cnn(C4CCN(C)CC4)c3)cn2)n1 [Example 15, (S)-1-(2-((2-(2-fluoro-6-methoxyphenyl)pyrimidin-4-yl)amino)-5-(1-(1-methylpiperidin-4-yl)-1H-pyrazol-4-yl)pyridin-4-yl)piperidin-3-ol] |
| ≤ 10 | COc1cccc(F)c1-c1nccc(Nc2cc(N3CCC[C@H](O)C3)c(-c3cnn(CC(F)(F)F)c3)cn2)n1 [Example 16, (S)-1-(2-((2-(2-fluoro-6-methoxyphenyl)pyrimidin-4-yl)amino)-5-(1-(2,2,2-trifluoroethyl)-1H-pyrazol-4-yl)pyridin-4-yl)piperidin-3-ol] |
| ≤ 10 | COc1cccc(F)c1-c1nccc(Nc2cc(N3CCC[C@H](O)C3)c(-c3cnn(CC4CC4)c3)cn2)n1 [Example 17, (S)-1-(5-(1-(cyclopropylmethyl)-1H-pyrazol-4-yl)-2-((2-(2-fluoro-6-methoxyphenyl)pyrimidin-4-yl)amino)pyridin-4-yl)piperidin-3-ol] |
| ≤ 10 | COc1cccc(F)c1-c1nccc(Nc2cc(N3CCC[C@H](O)C3)c(-c3ccc(C4CCOCC4)cc3)cn2)n1 [Example 18, (S)-1-(2-((2-(2-fluoro-6-methoxyphenyl)pyrimidin-4-yl)amino)-5-(4-(tetrahydro-2H-pyran-4-yl)phenyl)pyridin-4-yl)piperidin-3-ol] |
| ≤ 10 | COc1cccc(F)c1-c1nccc(Nc2cc(N3CCC[C@H](O)C3)c(-c3ccc(N4CCN(C)CC4)cc3)cn2)n1 [Example 19, (S)-1-(2-((2-(2-fluoro-6-methoxyphenyl)pyrimidin-4-yl)amino)-5-(4-(4-methylpiperazin-1-yl)phenyl)pyridin-4-yl)piperidin-3-ol] |
